“Also recorded” adds a separate entry of the source.
Experiments:
[1] = tested on: phospho-JNK; assay: Western blot of epidermis of irradiated mice; conditions: oral gavage 40–80 mg/kg twice a day, 10 kJ/m^2 UVB
[2] = tested on: HRAS^G12V-transformed HaCaT cells (SCR, TKD); assay: Soft agar colony formation; assay type: cell-based, human; conditions: 1.0 μM, SCR and TKD cells
[3] = tested on: phospho-JNK; assay: Western blot, UV-induced phospho-JNK in cSCC and HaCaT cell lines; assay type: cell-based, human; conditions: 1 μM, post-radiation
[4] = tested on: COLO16 cells; assay: Doxorubicin-induced apoptosis, FACS; conditions: 1 μM, 24 hr
[5] = target: BRK (PTK6) (Homo sapiens, UniProt Q13882); conditions: ref Bollag et al., 2010; read-out: Published biochemical IC50; cited from earlier work
Chain of BRK (PTK6) (Q13882 whole entry): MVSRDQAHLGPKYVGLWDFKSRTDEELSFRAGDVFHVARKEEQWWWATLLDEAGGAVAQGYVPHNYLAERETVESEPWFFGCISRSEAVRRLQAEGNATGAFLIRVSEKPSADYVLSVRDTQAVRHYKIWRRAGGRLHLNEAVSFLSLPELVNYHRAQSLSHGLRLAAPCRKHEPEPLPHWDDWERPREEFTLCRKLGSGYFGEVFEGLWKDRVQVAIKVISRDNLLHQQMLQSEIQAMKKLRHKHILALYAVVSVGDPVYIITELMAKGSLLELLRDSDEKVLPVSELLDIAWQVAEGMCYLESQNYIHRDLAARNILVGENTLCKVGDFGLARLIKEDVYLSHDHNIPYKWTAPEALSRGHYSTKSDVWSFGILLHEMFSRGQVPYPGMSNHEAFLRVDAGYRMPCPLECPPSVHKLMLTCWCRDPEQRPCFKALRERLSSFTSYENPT

[6] = target: T1, TAOK2 (Homo sapiens, UniProt Q9UL54); set-up: method as in Bollag et al., 2010; conditions: ref Bollag et al., 2010; read-out: Published biochemical IC50; cited from earlier work
T1 construct: purchased KINOMEscan (DiscoveRx), San Diego, CA
T1 sequence (Q9UL54 1-1235): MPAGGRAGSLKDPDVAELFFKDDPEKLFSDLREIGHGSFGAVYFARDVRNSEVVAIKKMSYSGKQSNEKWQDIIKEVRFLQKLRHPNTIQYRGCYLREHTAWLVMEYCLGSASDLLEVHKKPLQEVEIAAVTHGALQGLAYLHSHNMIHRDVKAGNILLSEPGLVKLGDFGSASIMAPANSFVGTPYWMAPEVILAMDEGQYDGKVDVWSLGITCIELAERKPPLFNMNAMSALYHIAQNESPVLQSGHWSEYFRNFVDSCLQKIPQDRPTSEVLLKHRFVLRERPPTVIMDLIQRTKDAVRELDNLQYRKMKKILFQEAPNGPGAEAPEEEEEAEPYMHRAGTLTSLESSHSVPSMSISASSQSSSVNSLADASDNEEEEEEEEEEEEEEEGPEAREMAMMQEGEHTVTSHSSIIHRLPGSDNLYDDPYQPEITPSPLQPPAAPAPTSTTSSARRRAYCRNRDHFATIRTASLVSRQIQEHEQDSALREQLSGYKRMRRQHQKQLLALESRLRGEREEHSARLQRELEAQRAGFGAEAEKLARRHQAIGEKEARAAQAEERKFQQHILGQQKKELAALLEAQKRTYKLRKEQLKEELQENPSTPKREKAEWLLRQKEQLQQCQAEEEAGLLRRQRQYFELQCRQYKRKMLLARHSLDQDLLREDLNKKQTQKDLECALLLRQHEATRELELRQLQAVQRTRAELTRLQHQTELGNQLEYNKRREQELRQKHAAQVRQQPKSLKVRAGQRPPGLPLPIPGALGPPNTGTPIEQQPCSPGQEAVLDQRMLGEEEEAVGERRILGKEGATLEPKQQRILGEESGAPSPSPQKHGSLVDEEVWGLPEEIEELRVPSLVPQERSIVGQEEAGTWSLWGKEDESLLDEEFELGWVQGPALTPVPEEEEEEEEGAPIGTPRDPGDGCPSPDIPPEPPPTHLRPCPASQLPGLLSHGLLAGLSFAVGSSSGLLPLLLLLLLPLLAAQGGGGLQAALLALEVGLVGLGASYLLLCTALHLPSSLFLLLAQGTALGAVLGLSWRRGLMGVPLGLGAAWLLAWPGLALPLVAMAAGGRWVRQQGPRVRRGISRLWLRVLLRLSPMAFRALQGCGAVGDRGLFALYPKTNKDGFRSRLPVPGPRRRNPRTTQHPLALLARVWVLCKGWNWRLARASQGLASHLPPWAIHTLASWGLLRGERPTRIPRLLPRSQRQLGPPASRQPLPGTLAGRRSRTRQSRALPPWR

[7] = target: T2, MAP4K5 (Homo sapiens, UniProt Q9Y4K4); set-up: method as in Bollag et al., 2010; conditions: ref Bollag et al., 2010; read-out: Published biochemical IC50; cited from earlier work
T2 construct: purchased KINOMEscan (DiscoveRx), San Diego, CA
T2 sequence (Q9Y4K4 whole entry): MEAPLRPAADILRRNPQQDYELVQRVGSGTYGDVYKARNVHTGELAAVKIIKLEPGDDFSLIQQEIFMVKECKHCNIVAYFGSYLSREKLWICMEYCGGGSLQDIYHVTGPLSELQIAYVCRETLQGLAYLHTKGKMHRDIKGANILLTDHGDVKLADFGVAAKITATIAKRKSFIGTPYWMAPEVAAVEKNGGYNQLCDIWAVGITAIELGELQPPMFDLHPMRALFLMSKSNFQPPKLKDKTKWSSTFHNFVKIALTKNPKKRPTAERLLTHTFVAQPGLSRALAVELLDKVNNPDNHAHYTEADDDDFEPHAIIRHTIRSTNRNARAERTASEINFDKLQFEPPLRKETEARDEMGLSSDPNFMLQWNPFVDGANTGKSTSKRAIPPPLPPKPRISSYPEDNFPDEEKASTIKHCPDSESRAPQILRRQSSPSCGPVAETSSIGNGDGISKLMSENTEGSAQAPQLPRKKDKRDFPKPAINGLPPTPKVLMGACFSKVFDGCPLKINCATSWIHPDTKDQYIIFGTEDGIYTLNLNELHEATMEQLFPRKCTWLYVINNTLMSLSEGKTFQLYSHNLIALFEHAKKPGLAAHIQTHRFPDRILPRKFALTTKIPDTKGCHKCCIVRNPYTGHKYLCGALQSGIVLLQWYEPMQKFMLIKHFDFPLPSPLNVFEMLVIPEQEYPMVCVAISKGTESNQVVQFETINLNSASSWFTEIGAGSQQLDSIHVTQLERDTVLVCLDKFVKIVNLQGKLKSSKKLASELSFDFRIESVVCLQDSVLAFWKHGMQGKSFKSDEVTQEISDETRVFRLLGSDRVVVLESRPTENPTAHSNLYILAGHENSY

[8] = tested on: phospho-JNK and phospho-p38; assay: Western blot, UV-induced phospho-JNK and phospho-p38 in NHEKs; assay type: cell-based, human; conditions: NHEK, 1 μM, most significantly at 6 and 24 hr
Text: We next examined the responses of primary normal human epidermal keratinocytes (NHEKs) to vemurafenib. […] In probing members of the BCL2 family, we found similar results to those in the cSCC and HaCaT cell lines. […] The advantage of using primary cells is that p53 is intact.
Figure 2. […] DOI: http://dx.doi.org/10.7554/eLife.00969.010 [drawing 5]

[9] = 960 mg PO BID, ref Flaherty et al., 2010; cited from earlier work
[10] = target: T3, TAOK3 (Homo sapiens, UniProt Q9H2K8); set-up: method as in Bollag et al., 2010; conditions: ref Bollag et al., 2010; read-out: Published biochemical IC50; cited from earlier work
T3 construct: purchased KINOMEscan (DiscoveRx), San Diego, CA
T3 sequence (Q9H2K8 whole entry): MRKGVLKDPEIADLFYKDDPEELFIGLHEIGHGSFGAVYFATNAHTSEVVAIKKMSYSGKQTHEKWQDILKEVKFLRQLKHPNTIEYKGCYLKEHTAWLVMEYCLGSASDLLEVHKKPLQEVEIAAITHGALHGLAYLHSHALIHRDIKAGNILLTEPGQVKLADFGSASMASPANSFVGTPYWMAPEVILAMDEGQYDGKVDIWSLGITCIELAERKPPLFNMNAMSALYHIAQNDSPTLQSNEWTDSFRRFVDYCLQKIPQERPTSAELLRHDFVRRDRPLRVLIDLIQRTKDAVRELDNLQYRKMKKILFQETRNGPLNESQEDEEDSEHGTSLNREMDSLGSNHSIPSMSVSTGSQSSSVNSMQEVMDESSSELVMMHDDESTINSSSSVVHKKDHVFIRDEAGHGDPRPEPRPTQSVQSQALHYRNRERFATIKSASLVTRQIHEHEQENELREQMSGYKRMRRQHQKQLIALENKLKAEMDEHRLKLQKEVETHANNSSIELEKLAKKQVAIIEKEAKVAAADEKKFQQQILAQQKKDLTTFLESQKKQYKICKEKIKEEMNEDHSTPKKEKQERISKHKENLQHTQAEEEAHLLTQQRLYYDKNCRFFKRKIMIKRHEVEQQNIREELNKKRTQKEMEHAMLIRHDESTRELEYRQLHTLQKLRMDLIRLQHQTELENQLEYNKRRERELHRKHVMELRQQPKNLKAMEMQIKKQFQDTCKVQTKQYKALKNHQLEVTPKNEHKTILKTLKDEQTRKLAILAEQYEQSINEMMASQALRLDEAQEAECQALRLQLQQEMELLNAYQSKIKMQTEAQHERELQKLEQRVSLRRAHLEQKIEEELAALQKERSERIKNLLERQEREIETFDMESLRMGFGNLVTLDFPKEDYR

[11] = tested on: phospho-JNK; assay: Immunohistochemistry of cSCC from vemurafenib-treated patients vs sporadic cSCC; assay type: in vivo, human; conditions: stained cells per mm^2 tumor, p=0.013
Protocol: (§1) Phospho-JNK and cleaved caspase-3 expression were assessed by immunohistochemistry and then quantified following normalization by unit area (mm^2) of tumor tissue (malignant keratinocytes) only (Figure 4A–D, Figure 4—figure supplement 1).
(§2) Cutaneous squamous cell carcinomas biopsied from patients treated with or without BRAF-inhibitor were obtained either under clinical trials (Roche) or separate IRB approval (LAB08-0750). Staining levels were quantified by counting positively labeled cells and dividing by the total area of the tumor tissue within each sample. To measure tumor areas, all samples were photographed, tumor cells outlined, and total pixel numbers calculated using included image analysis tools in Adobe Photoshop and standardized to a hemacytometer to convert to mm^2. To measure apoptosis in irradiated skin, pyknotic or dyskeratotic epidermal keratinocytes were counted and normalized to length (mm) of epidermis.

[12] = tested on: cleaved caspase-3; assay: as above; assay type: in vivo, human; conditions: stained cells per mm^2 tumor, p=0.042
Protocol: as §1, §2

SMILES | UV-induced phospho-JNK in epidermis [1] | colony formation [2] | UV-induced phospho-JNK levels [3] | doxorubicin-induced apoptosis (Annexin V+, TMRE-low cells) [4] | IC50 [5] | IC50 [6] | IC50 [7] | UV-induced upregulation of phospho-JNK and phospho-p38 [8] | mean sustained serum levels [9] | IC50 [10] | phospho-JNK expression in cSCC of treated patients vs sporadic cSCC [11] | cleaved caspase-3 expression in cSCC of treated patients vs sporadic cSCC [12]
CCCS(=O)(=O)Nc1ccc(F)c(C(=O)c2c[nH]c3ncc(Cl)cc23)c1F [PLX4720] | significantly suppressed | significant colony formation advantage | significantly suppressed; also recorded: potently suppresses | significant decrease in apoptosis | – | – | – | – | – | – | – | –
CCCS(=O)(=O)Nc1ccc(F)c(C(=O)c2c[nH]c3ncc(-c4ccc(Cl)cc4)cc23)c1F [vemurafenib] | – | – | – | – | 213 nM | > 1000 nM | 51 nM | suppressed | 86 µM | > 1000 nM | significant reductions | significant reductions

— PMC3814616, “BRAF inhibitors suppress apoptosis through off-target inhibition of JNK signaling” (eLife, 2013)
